Measurements taken from patent US8399442B2, “Pharmaceutical compounds” (priority 2005, dated 2013).
Where a name gives a salt, the structure may show the parent alone.

What was measured:
[1] = Physicochemical parameters (pKa, logP, logD)
physchem [2] = conditions: water
physchem [3] = conditions: water, thermodynamic from solid
Chk2 = molecular target: T1, Chk2 (Homo sapiens, UniProt O96017); assay: Kinase inhibitory activity assay (Upstate, 33P-ATP); type: biochemical; conditions: read-out: Inhibition of kinases in vitro, % at 30 nM
T1 construct: purchased Upstate Discovery Ltd
T1 sequence (O96017 whole entry): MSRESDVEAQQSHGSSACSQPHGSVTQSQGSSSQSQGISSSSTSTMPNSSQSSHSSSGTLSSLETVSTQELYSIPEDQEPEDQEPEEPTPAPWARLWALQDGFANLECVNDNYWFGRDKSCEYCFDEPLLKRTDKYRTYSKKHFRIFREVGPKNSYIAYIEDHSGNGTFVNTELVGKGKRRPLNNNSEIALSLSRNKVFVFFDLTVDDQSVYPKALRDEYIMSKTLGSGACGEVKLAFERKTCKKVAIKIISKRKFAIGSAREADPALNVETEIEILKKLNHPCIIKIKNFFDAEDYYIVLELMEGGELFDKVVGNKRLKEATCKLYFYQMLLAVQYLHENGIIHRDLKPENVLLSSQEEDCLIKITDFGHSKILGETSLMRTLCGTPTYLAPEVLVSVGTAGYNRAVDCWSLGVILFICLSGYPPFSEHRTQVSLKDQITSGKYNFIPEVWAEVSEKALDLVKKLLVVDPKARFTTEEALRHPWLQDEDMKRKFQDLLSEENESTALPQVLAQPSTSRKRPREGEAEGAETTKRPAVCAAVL
Description: Where inhibition was high an IC50 was determined.

[4] = tested on: primary human mammary epithelial cells; conditions: 24 h

Molecule: 1-(2,6-difluorophenyl)-N-[3-(5-morpholin-4-ylmethyl-1H-benzimidazol-2-yl)-1H-pyrazol-4-yl]-urea
- logP [1]: 3.24
- logPion [1]: 0.36
- logD ([1]; pH=6): 2.27
- logD ([1]; pH=6.5): 2.68
- logD ([1]; pH=7.4): 3.11

Molecule: O=C(Nc1c[nH]nc1-c1nc2cc(CN3CCOCC3)ccc2[nH]1)Nc1c(F)cccc1F (as salt: hydrochloride) [1-(2,6-difluorophenyl)-N-[3-(5-morpholin-4-ylmethyl-1H-benzimidazol-2-yl)-1H-pyrazol-4-yl]-urea]
- melting point: 190 °C

Molecule: O=C(Nc1c[nH]nc1-c1nc2cc(CN3CCOCC3)ccc2[nH]1)NC1CC1 [D-Gluconate]
- solubility (physchem [2]; thermodynamic from solid): > 25 mg/mL

Molecule: O=C(Nc1c[nH]nc1-c1nc2cc(CN3CCOCC3)ccc2[nH]1)NC1CC1 [Acetate]
- solubility (physchem [2]; thermodynamic from solid): > 25 mg/mL
- solubility (physchem [3]): > 100 mg/mL

Molecule: O=C(Nc1c[nH]nc1-c1nc2cc(CN3CCOCC3)ccc2[nH]1)NC1CC1 [compound of formula (I^0)]
- inhibition at 0.03 µM (Chk2): 41%
- effect of treatment on normal cells cf. tumor cells [4]: fewer become multinucleated or die after treatment, but instead undergo reversible G2/M arrest

Molecule: O=C(Nc1c[nH]nc1-c1nc2cc(CN3CCOCC3)ccc2[nH]1)NC1CC1 [D-Glucuronate]
- solubility (physchem [2]): > 25 mg/mL
- solubility at 20 h (physchem [2]; thermodynamic from solid): > 50 mg/mL
- solubility (physchem [3]): > 100 mg/mL
